From patent US7683031B2, “Short peptides from the ‘2nd loop’ of 7 transmembrane receptor which selectively modulate signal transduction” (Yissum Research Development Company of the Hebrew …, priority 2002, dated 2010)

How the values were obtained:
[1] = test system: aortic ring; experiment: Aortic ring assay (capillary growth ex vivo in collagen matrix gel); format: cell-based, rat; settings: for aortic ring neovascularization in presence of G-protein inhibitor PTX / aortic ring neovascularization: S1P 100 μm, R002L103 20 μm, FIG. 4; for aortic ring neovascularization in presence of G-protein inhibitor PTX: PTX 100 nm/ml; for aortic ring neovascularization: without PTX; for neovascularization effect, each agent alone / angiogenetic effect, each agent alone: R002L103 20 μg; for angiogenetic effect, each agent alone: VEGF 12 nm/ml
Method: The following are suitable in vivo or ex vivo modes for angiogenesis: • (1) Aortic ring—where sprouting of newly formed blood vessels is tested whole mounts of aortic rings obtained from rats (see below) • (2) Eye assay—where formation of new blood vessels in the cornea of the animal as a response to an FGF-implanted pellet is determined (see below). • (3) Sponge assay—where infiltration of new blood vessels into a sponge implanted s.c. in an experimental animal is determined (see below) • (4) Regression of pre-formed vasculature in tumors (Benjamin L. E. and Kesshet E. PNAS, 94, 8761-8766, (1997)). • (5) Re-establishment of circulation in dissected vessels in the limbs of experimental animals. Experimental Procedures: 1. Aortic Ring-Assay:
The modification of previously described assay (Nicosia, R. F. and Ottinetti, A. “Growth of microvessels in serum-free matrix culture of rat aorta.” Lab. Invest. 63:115-122. 1990) for capillary growth ex vivo was used. The assay is based on the phenomenon of endothelial cells proliferation from freshly prepared aorta placed into collagen matrix gel, that finally formed new capillary system.
The experiments were carried out on two lines of animals—Sabra and Sprague-Dawley rats, males of 200-250 g-body weight (1-2 month old). Rats were acclimated to vivarium for 4-10 days before their use in study protocol. Each group (from 2 to 4) of the animals was housed in separate cage and fed food and water ad libitum.
Animals were sacrificed by decapitation after ether anesthesia Thoracic aortas were dissected and immediately transferred to a Petri dish with bio-mpm-1. The fibroadipose tissue and small vessels around aorta was carefully removed under a dissecting microscope, 1 mm-long aortic rings were sectioned and extensively (2-3 times) rinsed in bio-mpm-1 containing antibiotics (% cat.) (Nicosia and Ottinetti, 1990).
The collagen matrix gel solution (see above) was added to 24-well plate (0.4 ml to each well) and collagen polymerization was allowed for 15 min at 37° C. The aorta rings were transferred to the collagen gel solution (in order to glue them to the bottom layer of the gel) and then placed to the center of each well. In mice, 3 rings are embedded in the same well. After 15 min incubation of the plates at 37° C. another 0.4 ml of the collagen solution was carefully added on the top of the ring. After the gel is formed 0.4 ml of Serum-Free Endothelial Growth Medium (Rhenium, cat. 17601-030) or bio-mpm-1 (Beit Haemeq cat. 05-060-1) was added to each well. Rings were incubated in 37° c. and 10% CO2. Medium is replaced every 2-3 days.
Compound of the invention were added next day after collagen gel formation in concentration 10-20 uM. compounds were dissolved for 10 mM stock in 100% DMSO. Dilution in 0.1% BSA in PBS to 400 uM stock were done for each AR experiment de novo. The compounds were re-added to AR during each medium changing till well developed capillary system in control or experimental wells.
Fixation was carried out by adding of Buffered Formalin 4% (was obtained from BioLab, cat. 66554) 1.5 ml in each well. An hour later solution was changed to fresh Formalin in order to better fixation (overnight).
We used Crystal Violett (Gencian Violett) 0.02% in Ethanol Abs. as staining solution (1 ml for each well overnight at room temperature). After staining, wells were washed massively with 0.02% Sodium Azide water solution during two or three days till transparent matrix.
Digital pictures were analyzed using ImagePro™ software. The total capillary length of at least 6 AR was measured. Dividing the total capillary length to AD diameter normalized the data.

[2] = test system: B16 cells; experiment: Melanogenesis in B16 cells (melanin, absorbance 405 nm); format: cell-based; settings: tbi formulation; for EC50: read-out: EC 50 melanogenesis; for melanogenesis induction: β3-derived peptides up to 2.5 μM, FIG. 14-18
Method: (§1) B16 melanocyet cells were grown in DMEM with 4 mM L-glutamine, supplemented with 10% bovine calf serum in a 37° C. humidified incubator with 5% CO2. The day before the assays, 100 μl of 3×10^4 cells/ml were plated in 96-well microtiter plates overnight.
The day after B16 cells culturing, differential concentrations of stimulator (peptides or αMSH as positive control) were added. The cells were incubated for another 3 days then adding 70 ul of 1N NaOH stopped the reaction. The production of melanin was measured after 24 h as the optical absorbance in […].
“tbi” Formulation: peptides (10 mM final) were dissolved in DMSO (final 8%) and 2M Ammonium Bicarbonate (32% final) were added, the mixture was heated for 40 min then 2M HEPES pH 7.5 60% (final) were added.

[3] = test system: cornea of mice; experiment: Eye assay (neovascularization in the cornea after pellet implantation); format: in vivo; settings: five days after implantation; for blood vessels course of growth: FIG. 10
Method: The modification of the assay previously described in “A model of angiogenesis in the mouse cornea” B. M. Kenyon, E. E. Voest, C. C. Chen, E. Flynn J. Folkman and R. J. D'Amato Investigative Ophthalmology & Visual Science, July 1996, Vol. 37, No. 8 1625-1632 was used. The assay is based on the phenomena of formation of new blood vessels in the cornea of mice in response to the implantation in the cornea of a pellet impregnated with FGF.
1. To prepare—Hydron concentrated stock solution (120 mg/ml in ethanol Abs.) • Hydron diluted stock solution (60 mg/ml in ethanol Abs.) • sucralfate stock solution (500 mg/ml in solution S sterile!). • 10 mg peptide.
2. Add 30 μl of solution S to peptide (or 10 μl of solution S and 20 μl of FGF).
3. Add 20 μl of sucralfate stock solution—vortex, speedvac for 5 min (more if needed).
4. Add […] hydron diluted stock solution to sucralfate+FGF+peptide pellet.
Mice were anesthetized with Ketamin/Rompun Solution (for dosage and solutions preparation see standard anesthetic procedure). The eye is topically anesthetized with Localin (Benoxynate HCl 0.4%, Dr. Fisher, Pharmaceutical Labs, P.O.B. 39071, Tel-Aviv 61390). Using a binocular microscope, a central intrastromal linear keratotomy is performed with a surgical blade parallel to the insertion of the lateral rectus muscle. Approximate length of the cut is 0.5-0.6 mm length. The globe is proptosed with a forceps. A lamellar micropocket is dissected toward the temporal limbus using the modified von Graefe knife 2×30 mm. All following procedures must be done without proptosis. A pellet is placed on the corneal surface in the base of the pocket and advanced to the temporal end of the pocket with one arm of the forceps. The distance between pellet and limbal vessel is measured. For FGF containing pellets, the pocket must be extended within 1 mm of the limbus. Antibiotic and antimycotic ointment are applied to the operated eye to prevent infection and additional irritation of the cornea.
Measurements were done at 5th and 7th days after implantation. In the case of high stimulation inspections were done twice a week till full degradation. The maximum vessel length of neovascularization zone, extending from the limbal vessel toward the pellet was measured. The econtiguous circumferential zone of neovascularization was measured as clock hours (where 30° are equals 1 clock hour.)

[4] = test system: 3T3L1 adipocytes cells; experiment: cAMP assay in 3T3L1 adipocytes cells; format: cell-based; settings: FIG. 13
Method: 3T3L1 fibroblast were maintained in DMEM with 4 mM L-glutamine, supplemented with 10% calf serum in a 37° C. humidified incubator with 5% CO2. To differentiate fibroblast into adipocytes, cells were grown for 2 days after confluence. The media was then changed to DMEM containing 10% fetal bovine serum; 0.5 mM isobutylmethlxanthine; 4 μg/ml dexamethasone. 3 days later cells were maintained in DMEM containing 10% fetal bovine serum for two weeks, after which the cells were used for cAMP assay.
[…] The incubation was stopped by replacing the medium with lysis regent supplied in a commercial cAMP kit.
(§2) cAMP levels were determined using cAMP enzymeimmunoassay (EIA) system Biotra Amersham Pharmacia Biotech.

[5] = test system: β2-adrenergic transfected HEK293 cells; experiment: cAMP assay in β2-adrenergic transfected HEK293 cells; format: cell-based; settings: 10 μM peptide, after 1 h, FIG. 11
Method: The HEK293 cells were grown in Dulbecco's Modified Eagle's medium (DMEM) with 4 mM L-glutamine, supplemented with 10% horse serum in a 37° C. humidified incubator with 5% CO2. HEK293 cells were transfected using the fuGENE 6 Transfection Reagent. The following amounts of each expression plasmid were used for transfection of each well in a 6-well culture plate: 3 ug of pBK-flag β2AR; 3 ug of pRK5-GRK2 or in combination of 1.5 ug of pBK-flag β2AR and pRK5-GRK2. Cells were harvested after 24 h and transferred into 96-well culture plate (10^5 cells/ml) and a cAMP assay was carried out 48 h post transfection.
(§3) At the day of the assay medium was replaced with serum free medium containing 0.5 mM 3-isobutyl-methylxanthine and the experimental peptides were added for 60 min. The incubation was stopped by replacing the medium with lysis regent supplied in a commercial cAMP kit.
as §2

[6] = test system: B16 cells; experiment: cAMP assay in B16 cells; format: cell-based; settings: 10 μM peptide, after 1 h, FIG. 12
Method: as §1, §3, §2

`CCCCCCCCCCCCC/C=C/[C@@H](O)[C@@H](N)COP(=O)(O)O` [S1P, sphingosine-1-phosphate, reference compound] was tested, and the “aortic ring neovascularization in presence of G-protein inhibitor PTX” value [1] was “completely blocked” and the aortic ring neovascularization [1] was “caused neovascularization”.

With “FGF: pro-angiogenetic compound; bFGF, human recombinant, in materials” the “neovascularization effect, each agent alone” value (“neovascularization effect” below) ([1]; FGF 10 ng/ml, FIG. 8) was “no effect”.

With “GLLRRHS [K024H107, MC1 receptor Loop 2 derived-modified peptide]” the EC50 [2] was 2 µM and the melanogenesis induction [2] was “very efficient in inducing melanogenesis”.

With “LGLLRRHSI [K024H124, MC1 receptor Loop 2 derived-modified peptide]” the EC50 [2] was 0.15 µM and the melanogenesis induction [2] was “very efficient in inducing melanogenesis”.

With “R002L103: peptide based on sequence SEQ ID NO:3 of the 2nd loop of EDG3 (FIG. 1A) (MRPYDANKR)” the “angiogenesis in aortic rings” value ([1]; 10 μm and 20 μm R002L103, degree at least equal to that of S1P 100 nm, FIG. 3) was “increase angiogenesis in a dose dependent manner”, the capillary length ([1]; 20 μm, FIG. 2) was “decreased” and the “neovascularization effect” value ([1]; FGF 10 ng/ml, FIG. 8) was “no effect”. The “neovascularization, combination with FGF” value ([1]; R002L103 20 μg + FGF 10 ng/ml, FIG. 8) was “very significant neovascularization”, the “neovascularization, combination with SCF” value ([1]; R002L103 20 μg + SCF 30 nm/ml, FIG. 7) was “marked synergism and significant neovascularization” and the “neovascularization, combination with VEGF” value ([1]; R002L103 20 μg + VEGF 12 nm/ml, FIG. 6) was “marked and significant neovascularization”. For the same compound, the “aortic ring neovascularization in presence of G-protein inhibitor PTX” value [1] was “completely blocked”, the aortic ring neovascularization [1] was “caused neovascularization” and the “neovascularization effect” value ([1]; SCF 30 nm/ml, FIG. 7) was “no neovascularization effect”. The “angiogenetic effect, each agent alone” value ([1]; FIG. 6) was “hardly any angiogenetic effect”, the capillary length ([1]; from control to 10 μm, FIG. 2) was “increased” and the capillary thickness ([1]; various concentrations of R002L103, FIG. 2) was “directly correlated to the concentration”. The “neovascularization in the eye in response to implantation of a pellet” value ([3]; FIG. 9) was “marked neovascularization”, the “number of blood vessels compared to VEGF” value ([3]; FIG. 9) was “larger number of blood vessels” and the “blood vessels course of growth” value [3] was “relatively straight”.

In the case of “R013L101: β3-adrenergic Loop 2 derived peptide (GNPLRYGALVT)”, the melanogenesis induction [2] is reported as “failed as melanogenesis inducers”, the “level of cAMP increase” value ([4]; after 60 min of incubation) is reported as 18 fold and the “cAMP production comparing to the control level” value (from here on “cAMP production comparing”) [5] is reported as 140%. For the same compound, the “cAMP production comparing” value [6] was 900%.

For “R013L102: β3-adrenergic Loop 2 derived peptide (GLRYGALVTK)”, the melanogenesis induction [2] was “failed as melanogenesis inducers” and the “level of cAMP increase” value ([4]; after 120 min of incubation) was “did not affect”.

In the case of “R013L103: β3-adrenergic Loop 2 derived peptide (GPLRYGALVT)”, the melanogenesis induction [2] is reported as “failed as melanogenesis inducers”, the “level of cAMP increase” value ([4]; after 120 min of incubation) is reported as 18 fold and the “cAMP production comparing” value [5] is reported as “did not affect”. For the same compound, the “cAMP production comparing” value [6] was “did not affect”.

With SCF: another pro-angiogenetic compound the “neovascularization effect” value ([1]; SCF 30 nm/ml, FIG. 7) was “no neovascularization effect”.

For VEGF, the “angiogenetic effect, each agent alone” value ([1]; FIG. 6) was “hardly any angiogenetic effect”, the “neovascularization in the eye in response to implantation of a pellet” value ([3]; FIG. 9) was “able to induce neovascularization” and the “blood vessels course of growth” value [3] was “more coiled”.
